# Values quoted from earlier work, collected in patent publication US20170348285A1, “TREATMENT OF DRY EYE DISEASE WITH PARASYMPATHETIC & ANTI-SYMPATHETIC AGENTS” (priority 2016, published 2017).
# Columns and labels:
# [1] = topical formulation
# [2] = topical 0.05%, treatment for two months
# [3] = systemic administration
spasms of accommodation [1],change in pupil size [2],floppy iris syndrome (during eye surgery),retrograde ejaculation (in vivo),SMILES,tear production [2],efficacy as treatment of dry eye disease [3]
cause spasms of accommodation,without any change in pupil size,,,CC[C@@H]1C(=O)OC[C@@H]1Cc1cncn1C [pilocarpine],stimulate tear production,effective systemic treatment of dry eye disease
,,can cause the floppy iris syndrome,can cause retrograde ejaculation,CCOc1ccccc1OCCN[C@H](C)Cc1ccc(OC)c(S(N)(=O)=O)c1 [tamsulosin],,
